This is an account of results in ChEMBL document CHEMBL2010752, “Synthesis and biological evaluation of benzoisothiazole derivatives possessing N,N-dimethylformimidamide group as 5-HT₆ receptor antagonists” (Bioorg Med Chem, 2012).

The structures appear in SMILES notation.

Assay type in all cases: functional, cell-based
Experiment [1] deals with T1, 5-hydroxytryptamine receptor 6 (Homo sapiens, UniProt P50406). As to the kind of experiment: Antagonist activity at human recombinant 5HT6 receptor expressed in HeLa cells assessed as inhibition of 5HT-induced intracellular calcium level at 10 uM incubated for 15 mins prior to 5HT-induction measured after 1 hr by fluo-4-AM-based fluorimetry.
T1 sequence (P50406 whole entry): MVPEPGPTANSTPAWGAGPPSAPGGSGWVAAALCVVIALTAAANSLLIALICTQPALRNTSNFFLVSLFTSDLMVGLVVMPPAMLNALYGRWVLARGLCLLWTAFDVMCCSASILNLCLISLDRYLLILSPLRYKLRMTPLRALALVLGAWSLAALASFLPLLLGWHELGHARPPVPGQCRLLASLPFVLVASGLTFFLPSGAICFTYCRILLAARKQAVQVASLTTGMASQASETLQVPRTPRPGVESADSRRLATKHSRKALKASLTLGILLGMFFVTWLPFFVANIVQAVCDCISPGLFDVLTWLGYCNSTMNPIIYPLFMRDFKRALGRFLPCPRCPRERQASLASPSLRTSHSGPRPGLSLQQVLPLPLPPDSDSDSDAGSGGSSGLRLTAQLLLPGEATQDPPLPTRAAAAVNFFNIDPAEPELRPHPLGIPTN
In experiment [2] the target is 5-hydroxytryptamine receptor 4 (Homo sapiens) (UniProt Q13639). As to the kind of experiment: Antagonist activity at human 5HT4 receptor expressed in HEK293 cells assessed as inhibition of 5HT-induced intracellular calcium level at 10 uM incubated for 15 mins prior to 5HT-induction measured after 1 hr by fluo-4-AM-based fluorimetry. On the technique in general: Calcium flux is commonly read through the fluorescence of an indicator in the cells.
5-hydroxytryptamine receptor 4 (Homo sapiens), sequence (Q13639 whole entry): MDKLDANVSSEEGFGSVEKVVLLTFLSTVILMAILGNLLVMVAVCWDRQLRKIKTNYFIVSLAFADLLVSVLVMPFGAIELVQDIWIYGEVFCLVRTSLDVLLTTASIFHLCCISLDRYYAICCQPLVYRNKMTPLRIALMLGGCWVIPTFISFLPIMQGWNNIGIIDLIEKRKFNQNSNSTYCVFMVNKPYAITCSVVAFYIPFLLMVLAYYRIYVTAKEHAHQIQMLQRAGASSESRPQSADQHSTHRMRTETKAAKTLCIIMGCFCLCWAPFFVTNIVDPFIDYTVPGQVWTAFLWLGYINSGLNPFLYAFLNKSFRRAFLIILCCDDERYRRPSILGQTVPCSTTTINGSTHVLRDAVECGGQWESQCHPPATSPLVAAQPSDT

The target in experiment [3] is 5-hydroxytryptamine receptor 7 (Homo sapiens) (UniProt P34969). As to the kind of experiment: Antagonist activity at human 5HT7 receptor expressed in HEK293 cells assessed as inhibition of 5HT-induced intracellular calcium level at 10 uM incubated for 15 mins prior to 5HT-induction measured after 1 hr by fluo-4-AM-based fluorimetry.
5-hydroxytryptamine receptor 7 (Homo sapiens), sequence (P34969 whole entry): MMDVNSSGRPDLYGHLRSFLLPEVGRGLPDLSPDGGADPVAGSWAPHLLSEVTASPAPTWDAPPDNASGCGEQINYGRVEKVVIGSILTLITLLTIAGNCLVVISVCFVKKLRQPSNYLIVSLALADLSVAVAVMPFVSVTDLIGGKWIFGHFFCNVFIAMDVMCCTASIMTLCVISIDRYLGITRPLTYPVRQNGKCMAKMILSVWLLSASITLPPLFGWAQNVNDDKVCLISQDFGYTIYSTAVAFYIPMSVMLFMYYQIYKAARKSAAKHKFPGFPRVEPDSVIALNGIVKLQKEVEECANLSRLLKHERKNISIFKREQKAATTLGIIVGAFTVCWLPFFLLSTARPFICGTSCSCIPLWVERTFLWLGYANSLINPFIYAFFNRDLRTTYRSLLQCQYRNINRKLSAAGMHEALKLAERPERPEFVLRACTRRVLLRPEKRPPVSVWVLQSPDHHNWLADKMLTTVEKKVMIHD
In experiment [4] the target is T1, 5-hydroxytryptamine receptor 6. As to the kind of experiment: Antagonist activity at human 5HT6 receptor expressed in HEK293 cells assessed as inhibition of 5HT-induced intracellular calcium level at 10 uM incubated for 15 mins prior to 5HT-induction measured after 1 hr by fluo-4-AM-based fluorimetry.
The target is the same in experiment [5]. As to the kind of experiment: Antagonist activity at human recombinant 5HT6 receptor expressed in HeLa cells assessed as inhibition of 5HT-induced intracellular calcium level incubated for 15 mins prior to 5HT-induction measured after 1 hr by fluo-4-AM-based fluorimetry.

As for `CN(C)/C=N/c1nc2cc(NS(=O)(=O)c3ccc4ccccc4c3)ccc2s1`, the inhibition (usually the share of the control response that was lost under treatment) in experiment [1] was 66.3%.

Take `CN(C)/C=N/c1nsc2ccc(NS(=O)(=O)c3ccc(F)cc3)cc12`: the inhibition in experiment [1] came out at 20.2%.

Regarding `CN(C)/C=N/c1nsc2ccc(NS(=O)(=O)c3ccc4ccccc4c3)cc12`, the inhibition in experiment [2] was 17.4%; in experiment [1], 99.1%; in experiment [3] it was 28.9%; in experiment [4], 98.8%. Moreover, the IC50 – broadly, the concentration needed to halve the response being measured – in experiment [5] turned out to be 440 nM.

For `CN(C)/C=N/c1nsc2ccc(NS(=O)(=O)c3cccc4ccccc34)cc12`, in experiment [1], the inhibition came out at 43.5%.

For the molecule `CN(C)/C=N/c1nsc2ccc(NS(=O)(=O)c3ccc([N+](=O)[O-])cc3)cc12`, the inhibition in experiment [1] is 9.8%.

For the molecule `CN(C)/C=N/c1nsc2ccc(NS(=O)(=O)c3ccccc3)cc12`, the inhibition in experiment [1] is 42.6%.

With `CC(C)c1ccc(S(=O)(=O)Nc2ccc3snc(/N=C/N(C)C)c3c2)cc1`, the inhibition in experiment [1] came to 27%.

Take `CN(C)/C=N/c1nsc2ccc(NS(=O)(=O)c3c(F)cccc3F)cc12`: the inhibition in experiment [1] is 10.8%.

On to `Cc1ccc(S(=O)(=O)Nc2ccc3snc(/N=C/N(C)C)c3c2)cc1`, for which the inhibition was found to be 21.9% in experiment [2], 84.3% in experiment [1], 68.8% in experiment [3] and 86.5% in experiment [4]. In experiment [5], the IC50 came out at 360 nM.

Regarding `CN(C)/C=N/c1nc2cc(NS(=O)(=O)c3cccc4ccccc34)ccc2s1`, in experiment [1], the inhibition is 25.5%.

Take `CN(C)/C=N/c1nsc2ccc(NS(=O)(=O)c3cccc4cccnc34)cc12`: the inhibition in experiment [1] was determined as 12.1%.

`CN(C)/C=N/c1nsc2ccc(NS(=O)(=O)c3ccc(Cl)cc3)cc12`: the inhibition in experiment [2] turned out to be 11.6%; in experiment [1], 51.1%; in experiment [3], 40.2%; in experiment [4], 53.9%. Moreover, the IC50 in experiment [5] came to 3600 nM.
